Reference: publication PMC11435058, “Synthesis of New Thiazole-Privileged Chalcones as Tubulin Polymerization Inhibitors with Potential Anticancer Activities” (Pharmaceuticals, 2024)

Assays:
[1] = system: K-562; experiment: NCI-60 anticancer screen (SRB; single dose and five doses); settings: Homo sapiens
[2] = system: RPMI-8226; experiment: as above; settings: Homo sapiens
[3] = system: SR; experiment: as above; settings: Homo sapiens
[4] = system: A549/ATCC; experiment: as above; settings: Homo sapiens
[5] = system: EKVX; experiment: as above; settings: Homo sapiens
[6] = system: HOP-62; experiment: as above; settings: Homo sapiens
[7] = system: HOP-92; experiment: as above; settings: Homo sapiens
[8] = system: NCI-H23; experiment: as above; settings: Homo sapiens
[9] = system: NCI-H460; experiment: as above; settings: Homo sapiens
[10] = system: COLO 205; experiment: as above; settings: Homo sapiens
[11] = system: HCC-2998; experiment: as above
[12] = system: HCT-15; experiment: as above; settings: Homo sapiens
[13] = system: HT29; experiment: as above; settings: Homo sapiens
[14] = system: KM12; experiment: as above; settings: Homo sapiens
[15] = system: SNB-75; experiment: as above; settings: Homo sapiens, SNB-75, 48 h, read-out: Growth Percentage
[16] = system: LOX IMVI; experiment: as above; settings: Homo sapiens
[17] = system: SK-MEL-28; experiment: as above; settings: Homo sapiens
[18] = system: OVCAR-4; experiment: as above; settings: Homo sapiens
[19] = system: NCI/ADR-RES; experiment: as above; settings: Homo sapiens
[20] = system: 786-0; experiment: as above; settings: Homo sapiens
[21] = system: A498; experiment: as above; settings: Homo sapiens
[22] = system: ACHN; experiment: as above; settings: Homo sapiens
[23] = system: SN12C; experiment: as above; settings: Homo sapiens
[24] = system: TK-10; experiment: as above; settings: Homo sapiens
[25] = system: PC-3; experiment: as above; settings: Homo sapiens
[26] = system: DU-145; experiment: as above; settings: Homo sapiens
[27] = system: BT-549; experiment: as above; settings: Homo sapiens
[28] = system: T-47D; experiment: as above; settings: Homo sapiens, T47D
[29] = system: CCRF-CEM; experiment: NCI-60 anticancer screen (SRB; single dose 10 μM and five doses); settings: Homo sapiens
[30] = 48 h, read-out: Growth Percentage

Cc1[nH]c(=S)sc1C(=O)/C=C/c1ccc(Br)cc1 [2g, (E)-3-(4-Bromophenyl)-1-(4-Methyl-2-Thioxo-2,3-Dihydrothiazol-5-yl)Prop-2-En-1-One]
GI50 ([1]; K562): 2.73 µM | activity at 10 µM ([1]; K562, 48 h, read-out: Growth Percentage): 13.6% | CC50 ([1]; K562, read-out: LC50): > 100 µM | IC (TGI) ([1]; K562, read-out: TGI): > 100 µM | GI50 ([2]; RPMI-8226): 2.29 µM | activity at 10 µM ([2]; RPMI-8226, 48 h, read-out: Growth Percentage): 1.4% | CC50 ([2]; RPMI-8226, read-out: LC50): > 100 µM | IC (TGI) ([2]; RPMI-8226, read-out: TGI): > 100 µM | GI50 [3]: 2.83 µM | activity at 10 µM [3, 30]: 8.46% | CC50 ([3]; read-out: LC50): > 100 µM | IC (TGI) ([3]; read-out: TGI): 23.2 µM | GI50 ([4]; A549): 11.7 µM | activity at 10 µM ([4]; A549, 48 h, read-out: Growth Percentage): 64.1% | CC50 ([4]; A549, read-out: LC50): 55.3 µM | IC (TGI) ([4]; A549, read-out: TGI): 25.4 µM | GI50 [5]: 10.6 µM | activity at 10 µM [5, 30]: 62.9% | CC50 ([5]; read-out: LC50): 51 µM | IC (TGI) ([5]; read-out: TGI): 23.3 µM | GI50 ([6]; HOP-62): 3.94 µM | activity at 10 µM ([6]; HOP-62, 48 h, read-out: Growth Percentage): 11.9% | CC50 ([6]; HOP-62, read-out: LC50): 61.2 µM | IC (TGI) ([6]; HOP-62, read-out: TGI): 14 µM | GI50 ([7]; HOP-92): 6.44 µM | activity at 10 µM ([7]; HOP-92, 48 h, read-out: Growth Percentage): 67.1% | CC50 ([7]; HOP-92, read-out: LC50): 58.8 µM | IC (TGI) ([7]; HOP-92, read-out: TGI): 22.5 µM | GI50 ([8]; NCI-H23): 8.23 µM | activity at 10 µM ([8]; NCI-H23, 48 h, read-out: Growth Percentage): 65% | CC50 ([8]; NCI-H23, read-out: LC50): 48 µM | IC (TGI) ([8]; NCI-H23, read-out: TGI): 21.3 µM | GI50 ([9]; NCI-H460): 14.3 µM | activity at 10 µM ([9]; NCI-H460, 48 h, read-out: Growth Percentage): 39.1% | CC50 ([9]; NCI-H460, read-out: LC50): 80.9 µM | IC (TGI) ([9]; NCI-H460, read-out: TGI): 34.1 µM | GI50 ([10]; COLO 205): 13.9 µM | activity at 10 µM ([10]; COLO 205, 48 h, read-out: Growth Percentage): 90% | CC50 ([10]; COLO 205, read-out: LC50): 80 µM | IC (TGI) ([10]; COLO 205, read-out: TGI): 33.3 µM | GI50 ([11]; Homo sapiens, HCC 2998): 2.72 µM | activity at 10 µM ([11]; Homo sapiens, HCC 2998, 48 h, read-out: Growth Percentage): 3.23% | CC50 ([11]; Homo sapiens, HCC 2998, read-out: LC50): 31.6 µM | TGI ([11]; five-dose, Colon Cancer HCC-2998): 9.62 µM | GI50 ([12]; HCT-15): 2.66 µM | activity at 10 µM ([12]; HCT-15, 48 h, read-out: Growth Percentage): 5.48% | CC50 ([12]; HCT-15, read-out: LC50): 36.4 µM | IC (TGI) ([12]; HCT-15, read-out: TGI): 10 µM | GI50 ([13]; HT-29): 5.09 µM | activity at 10 µM ([13]; HT-29, 48 h, read-out: Growth Percentage): 76.3% | CC50 ([13]; HT-29, read-out: LC50): 57.8 µM | IC (TGI) ([13]; HT-29, read-out: TGI): 19.3 µM | GI50 ([14]; KM12): 3.27 µM | activity at 10 µM ([14]; KM12, 48 h, read-out: Growth Percentage): 1.17% | CC50 ([14]; KM12, read-out: LC50): 35.9 µM | IC (TGI) ([14]; KM12, read-out: TGI): 11 µM | activity at 10 µM [15]: 2.52% | GI50 [16]: 2.8 µM | activity at 10 µM [16, 30]: -5.17% | CC50 ([16]; read-out: LC50): 33.7 µM | IC (TGI) ([16]; read-out: TGI): 10.2 µM | GI50 ([17]; SK-MEL-28): 11.9 µM | activity at 10 µM ([17]; SK-MEL-28, 48 h, read-out: Growth Percentage): 64.2% | CC50 ([17]; SK-MEL-28, read-out: LC50): 50.2 µM | IC (TGI) ([17]; SK-MEL-28, read-out: TGI): 24.5 µM | GI50 ([18]; OVCAR-4): 10.7 µM | activity at 10 µM ([18]; OVCAR-4, 48 h, read-out: Growth Percentage): 49.5% | CC50 ([18]; OVCAR-4, read-out: LC50): 48.5 µM | IC (TGI) ([18]; OVCAR-4, read-out: TGI): 22.8 µM | GI50 [19]: 6.04 µM | activity at 10 µM [19, 30]: -13.9% | CC50 ([19]; read-out: LC50): 73.4 µM | IC (TGI) ([19]; read-out: TGI): 23.4 µM | GI50 ([20]; 786-0): 3.33 µM | activity at 10 µM ([20]; 786-0, 48 h, read-out: Growth Percentage): 25% | CC50 ([20]; 786-0, read-out: LC50): 41.8 µM | IC (TGI) ([20]; 786-0, read-out: TGI): 13.3 µM | GI50 ([21]; A498): 13.5 µM | activity at 10 µM ([21]; A498, 48 h, read-out: Growth Percentage, A498, dose of 10 μM): 109% | CC50 ([21]; A498, read-out: LC50): 51.8 µM | IC (TGI) ([21]; A498, read-out: TGI): 26.5 µM | GI50 [22]: 7.67 µM | activity at 10 µM [22, 30]: 55% | CC50 ([22]; read-out: LC50): 45.4 µM | IC (TGI) ([22]; read-out: TGI): 20.3 µM | GI50 [23]: 3.15 µM | activity at 10 µM [23, 30]: 19.2% | CC50 ([23]; read-out: LC50): 36.8 µM | IC (TGI) ([23]; read-out: TGI): 13.1 µM | GI50 ([24]; TK-10): 3.04 µM | activity at 10 µM ([24]; TK-10, 48 h, read-out: Growth Percentage): 37.8% | CC50 ([24]; TK-10, read-out: LC50): 35.2 µM | IC (TGI) ([24]; TK-10, read-out: TGI): 11.8 µM | GI50 ([25]; PC-3): 4.68 µM | activity at 10 µM ([25]; PC-3, 48 h, read-out: Growth Percentage): 48.8% | CC50 ([25]; PC-3, read-out: LC50): > 100 µM | IC (TGI) ([25]; PC-3, read-out: TGI): 26 µM | GI50 ([26]; DU-145): 3.52 µM | activity at 10 µM ([26]; DU-145, 48 h, read-out: Growth Percentage): 23.9% | CC50 ([26]; DU-145, read-out: LC50): 35.3 µM | IC (TGI) ([26]; DU-145, read-out: TGI): 12 µM | GI50 ([27]; BT-549): 2.6 µM | activity at 10 µM ([27]; BT-549, 48 h, read-out: Growth Percentage): 19.5% | IC (TGI) ([27]; BT-549, read-out: TGI): 7.28 µM | GI50 [28]: 2.77 µM | activity at 10 µM [28, 30]: 29% | CC50 ([28]; read-out: LC50): 61.7 µM | IC (TGI) ([28]; read-out: TGI): 11.8 µM | GI50 [29]: 3.06 µM | activity at 10 µM [29, 30]: -11% | IC (TGI) ([29]; read-out: TGI): 61.5 µM
